The values below come from patent US20250228842A1, “USES OF A SOMATOSTATIN MODULATOR FOR THE TREATMENT OF CARCINOID SYNDROME” (Crinetics Pharmaceuticals, Inc., priority 2022, published 2025).

The subject of series [1] is growth hormone (GH) levels. Kind of series: Phase 2 acromegaly trials (ACROBAT Edge / Evolve): GH level. Format: in vivo, human. As for the experimental part:
(§1) An open label exploratory study designed to evaluate the safety, efficacy, and pharmacokinetics of Compound A (also known as paltusotine) in subjects with acromegaly that are treated with somatostatin analogue (SSA) based treatment regimens.
(§2) Secondary Outcome Measures: 1) Change in IGF-1 levels [Time Frame: From Week 10 to Week 13]. 2) Change in growth hormone (GH) levels [Time Frame: From Week 8 to Week 13]. 3) Change in patient assessed symptoms of acromegaly [Time Frame: From Week 10 to Week 13]. Total score computed by adding each of the individual acromegaly symptom intensities (headache pain, joint pain, sweating, fatigue, weakness in legs, swelling, numbness or tingling).
(§3) The primary hypothesis was that the group would show no change in the median IGF-1 at Week 13 versus baseline.

Series [2] in a line: Phase 1 multi-cohort single dose study, plasma pharmacokinetics in healthy subjects. Format: in vivo, human. The procedure: Cohort 1: To characterize performance of 10 mg tablets prepared by spray-dried dispersion (SDD) of Compound A-HCl salt.
Cohort 2: To evaluate the relative bioavailability of 10 mg SDD tablets compared to the Compound A-HCl hot melt granulation (HMG) formulation, 10 mg capsules. To determine the effect of timing of food administration on pharmacokinetics of low dose of the 10 mg SDD tablets.
Cohort 5: To determine the effect of the proton-pump inhibitor (PPI), lansoprazole, on the pharmacokinetics of a 60 mg dose of SDD tablets. To determine the effect of a low-fat meal on the pharmacokinetics of a 60 mg dose of SDD tablets.
The SDD tablets were evaluated. Up to twelve (12) healthy male and female subjects were enrolled in each cohort. Cohort 1 consisted of 4 periods: In Period 1, subjects were administered a proton-pump inhibitor (lansoprazole, 15 mg BID for 3 days (from Day-3), taken orally at least 30 min prior to a meal, once in the morning and once in the evening). On the fourth day (Day 1 of study), fasted subjects will take the last dose of lansoprazole (15 mg) 60 min prior to 20 mg Compound A (2×10 mg of the SDD tablets). In Period 2, fasted subjects were administered 20 mg Compound A (2×10 mg of the SDD tablets). In Period 3, fasted subjects were administered 20 mg Compound A (2×10 mg of the SDD tablets) with a high-fat, high-calorie meal. In Period 4, fasted subjects will take up to 80 mg Compound A (up to 8×10 mg of the SDD tablets). The actual dose was selected based on the pharmacokinetic data from Period 2.
For Period 1: In the evening before dosing (Day −1), subjects were administered their evening dose of 15 mg lansoprazole, provided an evening meal at least 30 min after administration of lansoprazole, and then were required to fast overnight (≥10 hr) on Day −1. […]
The cohort consisted of three periods. The PK of 60 mg paltusotine administered as 3×20 mg SDD tablets was assessed using the following criteria: effect of a low-fat meal on the PK of paltusotine (Period 1 and Period 3) and effect of the PPI lansoprazole on the PK of paltusotine (Period 2) as follows: […]

In series [3] the test system is insulin-like growth factor-1 (IGF-1) level. Description: Phase 2 acromegaly trials (ACROBAT Edge / Evolve): IGF-1 level. Format: in vivo, human. As for the experimental part: as §1
10 mg HMG capsule formulation. Multiple capsules were swallowed with water depending on dose specified for a given period/cohort.
Primary Outcome Measures: Change from baseline (mean of Screening values) in insulin-like growth factor-1 (IGF-1) level [Time Frame: 13 Weeks].
Primary Outcome Measures: Proportion of subjects who meet responder criteria (based on the mean of two consecutive insulin-like growth factor-1 [IGF-1] measurements ≤upper limit of normal [ULN]) (Time Frame: 13 Weeks).
as §2, §3

Series [4] is described as follows: Tolerability in studies on subjects with acromegaly. Format: in vivo, human. As to conditions: 40 mg.
The test system of a further series is carcinoid syndrome. As to conditions: cited from earlier work.
[5] abbreviates: after 13 weeks of treatment, acromegaly patients previously treated with injected SRL depots.

Structures are written as SMILES.

As for `N#Cc1cccc(-c2ccc3ncc(-c4cc(F)cc(F)c4)c(N4CCC(N)CC4)c3c2)c1O` [Compound A, 3-(4-(4-amino-piperidin-1-yl)-3-(3,5-difluoro-phenyl)-quinolin-6-yl)-2-hydroxy-benzonitrile], in series [1] (setting [5]), the “GH levels vs baseline” value is given as “did not significantly change from baseline”. Further, in series [1] (after withdrawal), the GH after withdrawal result is listed as “Rise in GH after withdrawal”. Further, the “reduction of exposures (Cmax and AUC)” value is recorded as ~40% in series [2] (when administered with PPI, 60 mg); > 80% in series [2] (when administered with high-fat meal); ~60% in series [2] (when administered with low-fat meal, 60 mg). Also, the “IGF-1 levels vs baseline” value in series [3] (setting [5]) is “did not significantly change from baseline”. In addition, the IGF-1 after withdrawal entry in series [3] (within 2 weeks after withdrawal) was “Rise in IGF-1 after withdrawal”.
`Cl.N#Cc1cccc(-c2ccc3ncc(-c4cc(F)cc(F)c4)c(N4CCC(N)CC4)c3c2)c1O` [Compound A-HCl, 3-[4-(4-amino-piperidin-1-yl)-3-(3,5-difluoro-phenyl)-quinolin-6-yl]-2-hydroxy-benzonitrile monohydrochloride]: in series [4], the tolerability entry is listed as “well tolerated”. The “steady state IGF-1 change vs baseline (last LA-SRL injection)” value in series [3] (10 and 20 mg per day, acromegaly patients previously treated with LA-SRLs) is reported as “above baseline”. Also, the “steady state IGF-1 change from baseline (last LA-SRL injection)” value in series [3] (30/day and 40 mg/day, acromegaly patients previously treated with LA-SRLs) is reported as “near zero”.
As for `C[C@@H](O)[C@@H]1NC(=O)[C@H](CCCCN)NC(=O)[C@@H](Cc2c[nH]c3ccccc23)NC(=O)[C@H](Cc2ccccc2)NC(=O)[C@@H](NC(=O)[C@H](N)Cc2ccccc2)CSSC[C@@H](C(=O)N[C@H](CO)[C@@H](C)O)NC1=O` [octreotide], the “patients with carcinoid syndrome who respond” value with carcinoid syndrome is listed as 80%.
